Each structure is given as a SMILES string. Where a name gives a salt, the structure may show the parent alone.

This experiment addresses MetAP-2 (Homo sapiens, UniProt P50579). The experiment is described as follows: MetAP-2 activity measurement (coupled enzymatic reactions, substrate Met-Arg-Ser, photometric at 450 nm). It counts as biochemical. To be noted: read-out: IC50 enzyme (Inhibition of MetAP-2). Here is the method: MetAP-2 Activity Measurement
The MetAP-2 activity is determined by coupling enzymatic reactions. The tripeptide Met-Arg-Ser (MAS) is employed as substrate. The methionine liberated is firstly converted into Metox and H2O2 by L-aminooxidase (AAO). In the second step, the peroxidase (POD) with the aid of the H2O2 catalyses the oxidation of the leukodye dianisidine to dianisidineox, the increase of which is detected photometrically at 450 nm.
MetAP-2 activity can be recorded continuously as kinetics. The reaction scheme illustrates that one mol of dianisidineox is formed per mol of methionene. The MetAP-2 enzyme activity can therefore be calculated directly as Δ absorption per time unit. […] of the MetAP-2 activity (mol of Met/time unit) is possible with the aid of the dianisidineox extinction coefficient.
The change in extinction per time unit is depicted graphically and a slope calculation is carried out in the visually linear region of the reaction.

Sequence of MetAP-2 (P50579 whole entry, species assumed): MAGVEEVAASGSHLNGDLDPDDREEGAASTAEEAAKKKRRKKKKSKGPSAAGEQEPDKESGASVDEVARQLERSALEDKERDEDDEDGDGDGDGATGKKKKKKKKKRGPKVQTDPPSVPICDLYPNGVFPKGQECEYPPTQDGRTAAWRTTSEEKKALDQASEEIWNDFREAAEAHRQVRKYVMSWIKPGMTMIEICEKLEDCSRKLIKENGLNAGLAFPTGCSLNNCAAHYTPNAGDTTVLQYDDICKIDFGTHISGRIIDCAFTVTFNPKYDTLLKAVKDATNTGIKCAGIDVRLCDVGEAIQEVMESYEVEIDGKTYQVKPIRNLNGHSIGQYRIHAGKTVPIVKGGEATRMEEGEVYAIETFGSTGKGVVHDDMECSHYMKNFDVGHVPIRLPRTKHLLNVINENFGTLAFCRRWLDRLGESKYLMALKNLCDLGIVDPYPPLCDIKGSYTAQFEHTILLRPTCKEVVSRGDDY

Turning to `CNC(=O)c1cc(OC[C@H]2CCCN2c2ncnc3[nH]cnc23)c2ccccc2n1` [A48, N-Methyl-4-[(R)-1-(9H-purin-6-yl)pyrrolidin-2-yl-methoxy]quinoline-2-carboxamide formate], the IC50 – broadly, the concentration needed to halve the response being measured – lay in the range of 10 to 1000 nM.

For the compound `Cc1ccc2cccc(OC[C@H]3CCCN3c3ncnc4[nH]cnc34)c2n1` [A49, 2-Methyl-8-[(R)-1-(9H-purin-6-yl)pyrrolidin-2-yl-methoxy]quinoline], the IC50 fell in the range of 1000 to 10000 nM.

Regarding `CCNC(=O)c1cc(OC[C@H]2CCCN2c2ncnc3[nH]cnc23)c2ccccc2n1` [A50, N-Ethyl-4-[(R)-1-(9H-purin-6-yl)pyrrolidin-2-yl-methoxy]quinoline-2-carboxamide formate], the IC50 was in the range of 10 to 1000 nM.

Consider `O=C1CCCc2c(OC[C@H]3CCCN3c3ncnc4[nH]cnc34)cccc21` [A51], for which the IC50 was in the range of 10 to 1000 nM.

With `O=C(O)/C=C1/CCc2c(OC[C@H]3CCCN3c3ncnc4[nH]cnc34)cccc2C1=O` [A53, [1-Oxo-5-[(R)-1-(9H-purin-6-yl)pyrrolidin-2-yl-methoxy]-3,4-dihydro-1H-naphthalen-(2Z)-ylidene]acetic acid], the IC50 lay in the range of 10 to 1000 nM.

For the compound `c1cc2c(c(OC[C@H]3CCCN3c3ncnc4[nH]cnc34)c1)CCCC2` [A55, 6-[(R)-2-(5,6,7,8-Tetrahydronaphthalen-1-yl-oxymethyl)pyrrolidin-1-yl]-9H-purine], the IC50 lay within 10 to 1000 nM.

With `c1cc(OC[C@H]2CCCN2c2ncnc3[nH]cnc23)c2nccc(CN3CCOCC3)c2c1` [A56, 4-Morpholin-4-ylmethyl-8-[(R)-1-(9H-purin-6-yl)-pyrrolidin-2-ylmethoxy]quinoline], the IC50 was in the range of 1000 to 10000 nM.

For `Clc1ncc(OC[C@H]2CCCN2c2ncnc3[nH]cnc23)c2ccccc12` [A57, 1 -Chloro-4-[(R)-1-(9H-purin-6-yl)pyrrolidin-2-yl-methoxy]isoquinoline], the IC50 fell in the range of 10 to 1000 nM.

For `COCCOc1cccc2c(OC[C@H]3CCCN3c3ncnc4[nH]cnc34)cccc12` [A58, 6-{(R)-2-[5-(2-Methoxyethoxy)naphthalen-1-yl-oxymethyl]pyrrolidin-1-yl}-9H-purine], the half-maximal inhibitory concentration (IC50) lay in the range of 10 to 1000 nM.

Consider `O=c1c2ccccc2ccn1C[C@H]1CCCN1c1ncnc2[nH]cnc12` [A59, 2-[(R)-1-(9H-Purin-6-yl)pyrrolidin-2-ylmethyl]-2H-isoquinolin-1-one], for which the IC50 is above 10000 nM.

Regarding `c1ccc2c(OC[C@H]3CCCN3c3ncnc4[nH]cnc34)ccc(CNCCN3CCOCC3)c2c1` [A60, (2-Morpholin-4-ylethyl)-{4-[(R)-1-(9H-purin-6-yl)-pyrrolidin-2-ylmethoxy]naphthalen-1-yl-methyl}amine], the IC50 was 10 to 1000 nM.

For the compound `c1ccc2c(OC[C@H]3CCCN3c3ncnc4[nH]cnc34)c(CN3CCCCC3)ccc2c1` [A61, 6-[(R)-2-(2-Piperidin-1-ylmethylnaphthalen-1-yloxymethyl)pyrroiidin-1-yl]-9H-purine], the IC50 is above 10000 nM.

As to `c1ccc(-c2ccccc2OC[C@H]2CCCN2c2ncnc3[nH]cnc23)cc1` [A62, 6-[(R)-2-(Biphenyl-2-yloxymethyl)pyrrolidin-1-yl]-9H-purine], the IC50 was in the range of 1000 to 10000 nM.

For the compound `c1ccc(-c2cccc(OC[C@H]3CCCN3c3ncnc4[nH]cnc34)c2)cc1` [A63, 6-[(R)-2-(Biphenyl-3-yloxymethyl)pyrrolidin-1-yl]-9H-purine], the IC50 is 1000 to 10000 nM.

For the compound `c1ccc(-c2ccc(OC[C@H]3CCCN3c3ncnc4[nH]cnc34)cc2)cc1` [A64, 6-[(R)-2-(Biphenyl-4-yloxymethyl)pyrrolidin-1-yl]-9H-purine], the IC50 was above 10000 nM.

Regarding `COC(=O)c1cccc(-c2ncc(OC[C@H]3CCCN3c3ncnc4[nH]cnc34)cn2)c1` [A65, Methyl 3-{5-[(R)-1-(9H-purin-6-yl)pyrrolidin-2-yl-methoxy]pyrimidin-2-yl}benzoate], the IC50 lay within 10 to 1000 nM.

For `O=C(NCCN1CCOCC1)c1cccc(-c2ncc(OC[C@H]3CCCN3c3ncnc4[nH]cnc34)cn2)c1` [A66, N-(2-Morpholin-4-ylethyl)-3-{5-[(R)-1-(9H-purin-6-yl)pyrrolidin-2-ylmethoxy]pyrimidin-2-yl}-benzamide], the IC50 was in the range of 10 to 1000 nM.

Turning to `CNC(=O)/C=C1/CCc2c(OC[C@H]3CCCN3c3ncnc4[nH]cnc34)cccc2C1=O` [A67, N-Methyl-2-[1-oxo-5-[(R)-1-(9H-purin-6-yl)-pyrrolidin-2-ylmethoxy]-3,4-dihydro-1H-naphthalen-(2Z)-ylidene]acetamide], the IC50 fell in the range of 10 to 1000 nM.

For the compound `CC(O)CNC(=O)c1cc(OC[C@H]2CCCN2c2ncnc3[nH]cnc23)c2ccccc2n1` (stereo partly drawn) [A68, N-(2-Hydroxypropyl)-4-[(R)-1-(9H-purin-6-yl)-pyrrolidin-2-ylmethoxy]quinoline-2-carboxamide hydrochloride], the IC50 lay within 10 to 1000 nM.

Turning to `O=C(NC1CCCC1)c1cc(OC[C@H]2CCCN2c2ncnc3[nH]cnc23)c2ccccc2n1` [A69, N-Cyclopentyl-4-[(R)-1-(9H-purin-6-yl)-pyrrolidin-2-ylmethoxy]quinoline-2-carboxamide], the IC50 was 1000 to 10000 nM.

Turning to `CCCCNC(=O)c1cc(OC[C@H]2CCCN2c2ncnc3[nH]cnc23)c2ccccc2n1` [A70, N-Butyl-4-[(R)-1-(9H-purin-6-yl)pyrrolidin-2-yl-methoxy]quinoline-2-carboxamide], the IC50 lay within 10 to 1000 nM.

For `CCCNC(=O)c1cc(OC[C@H]2CCCN2c2ncnc3[nH]cnc23)c2ccccc2n1` [A71, N-Propyl-4-[(R)-1-(9H-purin-6-yl)pyrrolidin-2-yl-methoxy]quinoline-2-carboxamide], the IC50 is 10 to 1000 nM.

Consider `CC1(C)Cc2cccc(OC[C@H]3CCCN3c3ncnc4[nH]cnc34)c2O1` [A72, 6-[(R)-2-(2,2-Dimethyl-2,3-dihydrobenzofuran-7-yloxymethyl)pyrro!idin-1-yl]-9H-purine], for which the IC50 fell in the range of 1000 to 10000 nM.

In the case of `c1cc(OC[C@H]2CCCN2c2ncnc3[nH]cnc23)c2ncoc2c1` [A73, 6-[(R)-2-(Benzoxazol-4-yloxymethyl)pyrrolidin-1-yl]-9H-purine], the IC50 lay within 1000 to 10000 nM.

In the case of `CCOC(=O)/C=C/c1ccccc1OC[C@H]1CCCN1c1ncnc2[nH]cnc12` [A74, Ethyl (E)-3-{2-[(R)-1-(9H-purin-6-yl)pyrrolidin-2-ylmethoxy]phenyl}acrylate], the IC50 lay within 10 to 1000 nM.

On to `Cc1cc2c(OC[C@H]3CCCN3c3ncnc4[nH]cnc34)cccc2n1C(=O)C(F)(F)F` [A75, 2,2,2-Trifluoro-1-{2-methyl-4-[(R)-1-(9H-purin-6-yl)pyrrolidin-2-ylmethoxy]indol-1-yl}ethanone], for which the IC50 lay within 1000 to 10000 nM.

As for `O=C(O)/C=C/c1ccccc1OC[C@H]1CCCN1c1ncnc2[nH]cnc12` [A76, (E)-3-{2-[(R)-1-(9H-Purin-6-yl)pyrrolidin-2-yl-methoxy]phenyl}acrylic acid], the IC50 is above 10000 nM.

`Fc1ccc(-c2ncc(OC[C@H]3CCCN3c3ncnc4[nH]cnc34)cn2)cc1` [A77, 6-{(R)-2-[2-(4-Fluorophenyl)pyrimidin-5-yl-oxymethyl]pyrrolidin-1-yl}-9H-purine]: the IC50 lay in the range of 1000 to 10000 nM.

On to `CNC(=O)/C=C/c1ccccc1OC[C@H]1CCCN1c1ncnc2[nH]cnc12` [A78, (E)-N-Methyl-3-{2-[(R)-1-(9H-purin-6-yl)-pyrrolidin-2-ylmethoxy]phenyl}acrylamide], for which the IC50 was 1000 to 10000 nM.

For the compound `O=C(/C=C/c1ccccc1OC[C@H]1CCCN1c1ncnc2[nH]cnc12)NCCCO` [A79, (E)-N-(3-Hydroxypropyl)-3-{2-[(R)-1-(9H-purin-6-yl)pyrrolidin-2-ylmethoxy]phenyl}acrylamide], the IC50 was 10 to 1000 nM.

Regarding `O=C(NC1CCC1)c1cc(OC[C@H]2CCCN2c2ncnc3[nH]cnc23)c2ccccc2n1` [A80, N-Cyclobutyl-4-[(R)-1-(9H-purin-6-yl)pyrrolidin-2-ylmethoxy]quinoline-2-carboxamide], the IC50 lay in the range of 10 to 1000 nM.

Take `CCCCCNC(=O)c1cc(OC[C@H]2CCCN2c2ncnc3[nH]cnc23)c2ccccc2n1` [A81, N-Pentyl-4-[(R)-1-(9H-purin-6-yl)pyrrolidin-2-yl-methoxy]quinoline-2-carboxamide]: the IC50 was in the range of 10 to 1000 nM.

`Cn1ncc(Cl)c1/C=C1/CCc2c(OC[C@H]3CCCN3c3ncnc4[nH]cnc34)cccc2C1=O` [A82, 2-[1-(4-Chloro-2-methyl-2H-pyrazol-3-yl)meth-(Z)-ylidene]-5-[(R)-1-(9H-purin-6-yl)pyrrolidin-2-ylmethoxy]-3,4-dihydro-2H-naphthalen-1-one]: the IC50 is 10 to 1000 nM.

In the case of `O=C1/C(=C\c2cc[nH]n2)CCc2c(OC[C@H]3CCCN3c3ncnc4[nH]cnc34)cccc21` [A83, 5-[(R)-1-(9H-Purin-6-yl)pyrrolidin-2-ylmethoxy]-2-[1-(1H-pyrazol-3-yl)meth-(Z)-yildene]-3,4-dihydro-2H-naphthaien-1-one], the IC50 is 10 to 1000 nM.

Take `O=C(NCCO)c1cc(OC[C@H]2CCCN2c2ncnc3[nH]cnc23)c2ccccc2n1` [A84, N-(2-Hydroxyethyl)-4-[(R)-1-(9H-purin-6-yl)-pyrrolidin-2-ylmethoxy]quinoline-2-carboxamide]: the IC50 was in the range of 10 to 1000 nM.

Consider `O=C(NCCCO)c1cc(OC[C@H]2CCCN2c2ncnc3[nH]cnc23)c2ccccc2n1` [A85, N-(3-Hydroxypropyl)-4-[(R)-1-(9H-purin-6-yl)-pyrrolidin-2-ylmethoxy]quinoline-2-carboxamide], for which the IC50 lay within 10 to 1000 nM.

As for `c1cc(OC[C@H]2CCCN2c2ncnc3[nH]cnc23)c2cccnc2c1` [A86, 5-[(R)-1-(9H-Purin-6-yl)pyrrolidin-2-yl-methoxy]quinoline], the IC50 lay within 10 to 1000 nM.

For `c1cc(OC[C@H]2CCCN2c2ncnc3[nH]cnc23)c2cnccc2c1` [A87, 8-[(R)-1-(9H-Purin-6-yl)pyrrolidin-2-yl-methoxy]isoquinoline], the IC50 was in the range of 10 to 1000 nM.

The values are drawn from US8846694B2, “Pyrrolidone derivatives for use as MetAP-2 inhibitors” (Merck Patent GmbH, priority 2008, dated 2014).
